Assay results published in PubChem BioAssay (NCI).
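Compound exposure: 48 hours, 5 concentrations, 96-well plates. At the TGI there is no net growth.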 Where a SMILES comes first, the peptide text is derived from it. The star is where a group is joined. Boc = CC(C)(C)OC(=O)*

Key:
Experiment in all cases: NCI tumour cell line growth inhibition, 48 h
[1] = system: CCRF-CEM leukemia
[2] = system: DLD-1 colon
[3] = system: DMS 114 small cell lung
[4] = system: K-562 leukemia
[5] = system: KM20L2 colon
[6] = system: LXFL 529 NSCLC
[7] = system: M19-MEL melanoma
[8] = system: OVCAR-4 ovarian
[9] = system: UACC-257 melanoma
[10] = system: XF 498 CNS
[11] = system: DMS 273 small cell lung
[12] = system: HOP-18 NSCLC
[13] = system: SNB-78 CNS
[14] = system: UO-31 renal
[15] = system: A498 renal
[16] = system: LOX IMVI melanoma
[17] = system: RXF-631 renal
[18] = system: MDA-N

Compound | TGI [1] [µM] | TGI [2] [µM] | TGI [3] [µM] | TGI [4] [µM] | TGI [5] [µM] | TGI [6] [µM] | TGI [7] [µM] | TGI [8] [µM] | TGI [9] [µM] | TGI [10] [µM] | TGI [11] [µM] | TGI [12] [µM] | TGI [13] [µM] | TGI [14] [µM] | TGI [15] [µM] | TGI [16] [µM] | TGI [17] [µM] | TGI [18] [µM]
COc1cccc(OC)c1C(=O)OCc1ccccc1 | > 100 | > 100 | > 100 | > 100 | > 100 | > 100 | > 100 | > 100 | > 100 | > 100 |  |  |  |  |  |  |  | 
CCn1c2ccccc2c2ccc3c(c21)C(=O)C=CC3=O | > 100 | 14.9 | 21.7 | 9.19 |  | 3.56 | 25.8 | 14.2 | 27.7 | 12.9 | 33.8 | 23.2 | 57.5 | 21.6 |  |  |  | 
CCCCCCCOc1ccc(/C=C\c2cc[n+](CCCCCCCC[n+]3ccc(/C=C\c4ccc(OCCCCCCC)cc4)cc3)cc2)cc1 | > 100 | 67 | 36 |  | 63.1 | 34.8 | > 100 | > 100 | > 100 |  | 71.1 | 28.4 | > 100 | 41.2 | 80.8 | > 100 |  | 
COc1cccc(NC(=O)CSc2nnc(-c3ccc(NC(C)=O)cc3)o2)c1 | > 100 | > 100 | > 100 | > 100 | > 100 | > 100 | > 100 | > 100 | > 100 |  | > 100 | > 100 | > 100 | > 100 |  | > 100 |  | 
CC(C)(C)OC(=O)NC(Cc1ccc(O)cc1)C(=O)N1CCCC1C(=O)O (stereo not drawn) (Boc-Tyr-Pro-OH; configuration not given here) | > 100 | > 100 | > 100 | > 100 | > 100 | > 100 | > 100 | > 100 | > 100 | > 100 | > 100 | > 100 | > 100 | > 100 | > 100 | > 100 | > 100 | 
C/C=C1\CN2CCc3c([nH]c4ccccc34)C2CC1C(=O)OC (stereo unspecified) | > 322 | > 322 |  | > 322 | > 322 | > 322 |  |  | > 322 | > 322 | > 322 |  |  |  |  | > 322 |  | 
CC(=O)NC(CCCNC(=O)N(CCCl)N=O)C(=O)NCc1ccccc1 (stereo unspecified) | > 100 | > 100 | > 100 | > 100 | > 100 | > 100 | > 100 | > 100 | > 100 | > 100 | > 100 | > 100 |  | > 100 |  |  |  | 
C[N+](C)(C)CCc1ccccc1 | > 100 | > 100 | > 100 | > 100 | > 100 | > 100 | > 100 | > 100 | > 100 | > 100 | > 100 |  | > 100 | > 100 | > 100 | > 100 | > 100 | 
c1ccc2c(c1)C1CCCCCC21N1CCOCC1 (stereo unspecified) | > 100 | > 100 | > 100 | > 100 | > 100 | > 100 | > 100 | > 100 | > 100 |  | > 100 |  | > 100 | > 100 | > 100 | > 100 |  | 
COc1ccc2c(c1)C(=O)C1CC(=O)CCC21 (stereo unspecified) | > 100 | > 100 | > 100 | > 100 | > 100 | > 100 | > 100 | > 100 | > 100 |  | > 100 | > 100 | > 100 | > 100 | > 100 | > 100 | > 100 | 
CC(=O)CN(Cc1cc(C)c2c(c1)c1ccccc1n2Cc1ccccc1)S(=O)(=O)c1ccc(C)cc1 | > 100 | > 100 | > 100 | > 100 |  | > 100 | > 100 | > 100 | > 100 | > 100 | > 100 | > 100 | > 100 | > 100 |  |  | > 100 | 
CCOC(=O)c1c(C)nc2c1c(CN(C)C)c(O)c1[nH]c(C)c(C)nc12 | 38.3 |  |  | > 100 |  |  |  | > 100 | 61.3 |  |  |  |  | > 100 | 40 | 37.8 |  | 54.7
Cc1cc(C)c(-n2[nH]c(=O)n(C)c2=O)c(C)c1 | > 100 |  |  | > 100 |  |  |  | > 100 | > 100 |  |  |  |  | > 100 | > 100 | > 100 |  | > 100
O=C(CSc1nnc(Cc2ccccc2)o1)Nc1ccccc1 | > 100 | > 100 | > 100 | > 100 | > 100 | > 100 | > 100 | > 100 | > 100 |  | > 100 | > 100 | > 100 | > 100 | > 100 | > 100 |  | 
COC1=CC(=O)C2=C(C1=O)[C@H]1CC[C@]3(C)[C@@H](O)CC[C@H]3[C@@H]1CC2 | 86.2 |  |  | 83.8 |  |  |  | 30.9 | 30 |  |  |  |  | 43.5 | > 100 | 35.8 |  | 32.8
CC1(C)OC(=O)C(C#N)=C1/C=C/c1coc2ccc(Cl)cc2c1=O | 87 | 98 | > 100 | > 100 | > 100 | > 100 | > 100 | 55 | > 100 |  | > 100 |  | > 100 | 83.6 |  | 40.5 | > 100 | 
COc1cc(C2SCC(=O)N2c2cccc(Cl)c2)cc(OC)c1OC (stereo unspecified) | 91.2 |  |  | > 100 |  |  |  | > 100 | > 100 |  |  |  |  | > 100 | > 100 | > 100 |  | 43
CCC(CCCN)Nc1cc(OC)cc2c(C)ccnc12 (stereo unspecified) | 52.6 |  |  | 39.5 |  |  |  | 39 | 33.7 |  |  |  |  | 25.6 | 34 | 31.6 |  | 34.1
O=C1CCCN1C(=O)CS(=O)(=O)c1ccccc1 | > 100 |  |  | > 100 |  |  |  | > 100 | > 100 |  |  |  |  | > 100 | > 100 | > 100 |  | > 100
CSc1nc2c(c(=O)[nH]1)N=C(c1ccc([N+](=O)[O-])cc1)CC(c1ccccc1)N2 (stereo unspecified) | > 100 |  |  | > 100 |  |  |  | > 100 | > 100 |  |  |  |  | > 100 | > 100 | 92.4 |  | > 100
CC1(/C=C/CCSc2ccccc2)CC(=O)C2CC1C2(C)C (stereo unspecified) | 31 |  |  | > 100 |  |  |  | > 100 | > 73.6 |  |  |  |  | 43.5 | > 88.3 | 43.9 |  | > 100
CO/C(=N\N=C\c1ccc(OC)c(OC)c1)c1ccncc1 | > 10 |  |  | > 10 |  |  |  | > 10 | > 10 |  |  |  |  | > 10 | > 10 | > 10 |  | > 10
